Reference: EPA's CvTdb concentration-time database

Assays:
Rat [1] = test: concentration in plasma after dosing; conditions: 0.25 h; dosed: Gemfibrozil; 4.29 mg/kg; oral; Male; Sprague-Dawley
Rat [2] = test: concentration in plasma after dosing; conditions: 0.5 h; dosed: Gemfibrozil; 4.29 mg/kg; oral; Male; Sprague-Dawley
Rat [3] = test: concentration in plasma after dosing; conditions: 1 h; dosed: Gemfibrozil; 4.29 mg/kg; oral; Male; Sprague-Dawley
Rat [4] = test: concentration in plasma after dosing; conditions: 15 h; dosed: Gemfibrozil; 4.29 mg/kg; oral; Male; Sprague-Dawley
Rat [5] = test: concentration in plasma after dosing; conditions: 2 h; dosed: Gemfibrozil; 100 mg/kg; oral; Male; Sprague-Dawley
Rat [6] = test: concentration in plasma after dosing; conditions: 18 h; dosed: Gemfibrozil; 100 mg/kg; oral; Male; Sprague-Dawley
Rat [7] = test: concentration in plasma after dosing; conditions: 3 h; dosed: 678-39-7; 40 mg/kg; iv; Male; F344
Rat [8] = test: concentration in liver after dosing; conditions: 12 h; dosed: Fluorotelomer alcohol 8+2; 80 mg/kg; oral; Female; Harlan Sprague Dawley
Rat [9] = test: concentration in plasma after dosing; conditions: 3 h; dosed: Fluorotelomer alcohol 8+2; 12 mg/kg; oral; Male; Harlan Sprague Dawley
Rat [10] = test: concentration in plasma after dosing; conditions: dosed: 678-39-7, 12 mg/kg, iv, Male, F344
Rat [11] = test: concentration in kidney after dosing; conditions: 0.5 h; dosed: Fluorotelomer alcohol 8+2; 24 mg/kg; oral; Male; Harlan Sprague Dawley
Rat [12] = test: concentration in brain after dosing; conditions: 1 h; dosed: Fluorotelomer alcohol 8+2; 24 mg/kg; oral; Male; Harlan Sprague Dawley
Rat [13] = test: concentration in brain after dosing; conditions: 3 h; dosed: Fluorotelomer alcohol 8+2; 24 mg/kg; oral; Male; Harlan Sprague Dawley
Rat [14] = test: concentration in plasma after dosing; conditions: 192 h; dosed: Fluorotelomer alcohol 8+2; 24 mg/kg; oral; Male; Harlan Sprague Dawley
Rat [15] = test: concentration in plasma after dosing; conditions: dosed: 678-39-7, 12 mg/kg, iv, Male, F344; remark: listed apart in the source
Rat [16] = test: concentration in kidney after dosing; conditions: 1848 h; dosed: Perfluorooctane Sulfonate; 20 mg/kg; oral; Male; Harlan Sprague Dawley
Rat [17] = test: concentration in brain after dosing; conditions: 24 h; dosed: Perfluorooctane Sulfonate; 20 mg/kg; oral; Male; Harlan Sprague Dawley
Rat [18] = test: concentration in liver after dosing; conditions: 864 h; dosed: Perfluorooctane Sulfonate; 20 mg/kg; oral; Female; F344
Rat [19] = test: concentration in liver after dosing; conditions: 1848 h; dosed: Perfluorooctane Sulfonate; 2 mg/kg; oral; Female; Harlan Sprague Dawley
Rat [20] = test: concentration in liver after dosing; conditions: 6 h; dosed: Perfluorooctane Sulfonate; 20 mg/kg; oral; Male; Harlan Sprague Dawley
Rat [21] = test: concentration in plasma after dosing; conditions: dosed: Perfluorooctane Sulfonate, 2 mg/kg, iv, Male, F344
Rat [22] = test: concentration in plasma after dosing; conditions: dosed: Perfluorooctane Sulfonate, 2 mg/kg, iv, Male, F344; remark: listed apart in the source
Rat [23] = test: concentration in liver after dosing; conditions: 24 h; dosed: Perfluorooctane Sulfonate; 2 mg/kg; oral; Female; Harlan Sprague Dawley
Rat [24] = test: concentration in brain after dosing; conditions: 24 h; dosed: Perfluorooctane Sulfonate; 2 mg/kg; oral; Female; Harlan Sprague Dawley
Rat [25] = test: concentration in brain after dosing; conditions: 864 h; dosed: Perfluorooctane Sulfonate; 20 mg/kg; oral; Female; F344
Rat [26] = test: concentration in kidney after dosing; conditions: 6 h; dosed: Perfluorooctane Sulfonate; 2 mg/kg; oral; Female; Harlan Sprague Dawley
Rat [27] = test: concentration in kidney after dosing; conditions: 3360 h; dosed: Perfluorooctane Sulfonate; 2 mg/kg; oral; Female; Harlan Sprague Dawley
Rat [28] = test: concentration in brain after dosing; conditions: 1848 h; dosed: Perfluorooctane Sulfonate; 20 mg/kg; oral; Male; Harlan Sprague Dawley
Rat [29] = test: concentration in plasma after dosing; conditions: 2 h; dosed: 2-Methyltetrahydrofuran; 40 mg/kg; iv; Female; Harlan Sprague Dawley
Rat [30] = test: concentration in plasma after dosing; conditions: 0.2 h; dosed: 2-Methyltetrahydrofuran; 40 mg/kg; iv; Male; Harlan Sprague Dawley
Rat [31] = test: concentration in plasma after dosing; conditions: 4 h; dosed: 2-Methyltetrahydrofuran; 40 mg/kg; iv; Female; Harlan Sprague Dawley
Rat [32] = test: concentration in plasma after dosing; conditions: 1.5 h; dosed: 2-Methyltetrahydrofuran; 40 mg/kg; iv; Male; Harlan Sprague Dawley
Rat [33] = test: concentration in brain after dosing; conditions: 0.2 h; dosed: 2-Methyltetrahydrofuran; 40 mg/kg; iv; Male; Harlan Sprague Dawley
Rat [34] = test: concentration in liver after dosing; conditions: 3 h; dosed: Perfluorohexanoic Acid; 80 mg/kg; oral; Female; Harlan Sprague Dawley
Rat [35] = test: concentration in liver after dosing; conditions: 0.5 h; dosed: Perfluorohexanoic Acid; 80 mg/kg; oral; Female; Harlan Sprague Dawley
Rat [36] = test: concentration in plasma after dosing; conditions: dosed: Perfluorohexanoic Acid, 40 mg/kg, oral, Male, Harlan Sprague Dawley
Rat [37] = test: concentration in brain after dosing; conditions: 1 h; dosed: Perfluorohexanoic Acid; 80 mg/kg; oral; Female; Harlan Sprague Dawley
Rat [38] = test: concentration in plasma after dosing; conditions: 0.25 h; dosed: Perfluorohexanoic Acid; 40 mg/kg; iv; Male; F344
Rat [39] = test: concentration in liver after dosing; conditions: 3 h; dosed: Perfluorohexanoic Acid; 80 mg/kg; oral; Female; Harlan Sprague Dawley; remark: listed apart in the source
Rat [40] = test: concentration in plasma after dosing; conditions: dosed: Perfluorohexanoic Acid, 80 mg/kg, oral, Male, Harlan Sprague Dawley

Cc1ccc(C)c(OCCCC(C)(C)C(=O)O)c1 [Gemfibrozil]
Conditions | concentration in plasma [ng/mL]
Rat [1] | 509
Rat [2] | 424
Rat [3] | 258
Rat [4] | 131
Rat [5] | 10700
Rat [6] | 3300

O=C(O)CCC(F)(F)C(F)(F)C(F)(F)C(F)(F)C(F)(F)C(F)(F)C(F)(F)F [Fluorotelomer acid 7+3]
Conditions | concentration in brain [ng/g] | concentration in kidney [ng/g] | concentration in liver [ng/g] | concentration in plasma [ng/mL]
Rat [7] | – | – | – | 2370
Rat [8] | – | – | 5690 | –
Rat [9] | – | – | – | 866
Rat [11] | – | 198 | – | –
Rat [12] | 160 | – | – | –
Rat [13] | 440 | – | – | –
Rat [14] | – | – | – | 62.9

concentration in plasma [ng/mL]
Conditions | 0.75 h | 1 h | 6 h | 12 h
Rat [10] | – | 601 | 432 | –
Rat [15] | 365 | – | – | 74.1

O=S(=O)([O-])C(F)(F)C(F)(F)C(F)(F)C(F)(F)C(F)(F)C(F)(F)C(F)(F)C(F)(F)F [Perfluorooctane Sulfonate]
Conditions | concentration in brain [ng/g] | concentration in kidney [ng/g] | concentration in liver [ng/g]
Rat [16] | – | 25300 | –
Rat [17] | 9740 | – | –
Rat [18] | – | – | 77100
Rat [19] | – | – | 12000
Rat [20] | – | – | 164000
Rat [23] | – | – | 22900
Rat [24] | 920 | – | –
Rat [25] | 2700 | – | –
Rat [26] | – | 4220 | –
Rat [27] | – | 651 | –
Rat [28] | 660 | – | –

concentration in plasma [ng/mL]
Conditions | Rat [21] | Rat [22]
12 h | 4020 | 5170
1200 h | 875 | 1700

CC1CCCO1 (stereo unspecified) [2-Methyltetrahydrofuran]
Conditions | concentration in brain [ng/mL] | concentration in plasma [ng/mL]
Rat [29] | – | 3580
Rat [30] | – | 37000
Rat [31] | – | 245
Rat [32] | – | 19300
Rat [33] | 30800 | –

O=C(O)C(F)(F)C(F)(F)C(F)(F)C(F)(F)C(F)(F)F [Perfluorohexanoic Acid]
Conditions | concentration in brain [ng/g] | concentration in liver [ng/g] | concentration in plasma [ng/mL]
Rat [34] | – | 8200 | –
Rat [35] | – | 24900 | –
Rat [37] | 1340 | – | –
Rat [38] | – | – | 14700
Rat [39] | – | 14700 | –

concentration in plasma [ng/mL]
Conditions | 0.25 h | 5 min | 6 h | 9 h
Rat [36] | 54000 | – | 31300 | –
Rat [40] | – | 35400 | – | 3240
